Source: patent US9255122B2, “Cholate and deoxycholate-based amphiphiles for membrane protein manipulation” (Wisconsin Alumni Research Foundation, priority 2013, dated 2016)

Experiments:
[1] = test system: T1, LHI-RC complex; experiment: Long-term stability of LHI-RC complexes, absorbance ratio A875/A680 over 20-day incubation at room temperature; set-up: species or system Rhodobacter capsulatus; details: for long-term stability of superassembly (A875/A680), in words: room temperature; for native conformation retained by detergent-purified proteins: after 20 day-incubation at room temperature
T1 construct: made in house; host or cells: Rhodobacter capsulatus U43[pUHTM86Bgl], intracytoplasmic membranes
T1 sequence (P11847 whole entry): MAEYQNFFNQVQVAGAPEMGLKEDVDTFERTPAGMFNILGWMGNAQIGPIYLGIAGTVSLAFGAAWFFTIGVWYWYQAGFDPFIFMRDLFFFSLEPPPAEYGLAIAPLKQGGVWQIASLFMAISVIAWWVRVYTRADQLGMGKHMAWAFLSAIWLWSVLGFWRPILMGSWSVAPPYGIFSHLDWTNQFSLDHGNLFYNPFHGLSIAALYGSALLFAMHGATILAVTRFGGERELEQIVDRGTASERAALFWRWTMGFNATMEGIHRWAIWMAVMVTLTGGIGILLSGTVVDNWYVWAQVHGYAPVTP
T1 sequence (P19057 whole entry, further chain): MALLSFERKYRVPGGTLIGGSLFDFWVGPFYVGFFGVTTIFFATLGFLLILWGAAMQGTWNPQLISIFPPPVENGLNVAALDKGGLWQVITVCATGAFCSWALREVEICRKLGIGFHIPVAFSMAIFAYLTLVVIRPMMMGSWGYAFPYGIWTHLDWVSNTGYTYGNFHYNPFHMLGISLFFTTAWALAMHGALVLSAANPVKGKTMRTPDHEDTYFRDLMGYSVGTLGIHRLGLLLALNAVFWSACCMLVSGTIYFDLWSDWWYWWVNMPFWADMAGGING
T1 sequence (P19056 whole entry, further chain): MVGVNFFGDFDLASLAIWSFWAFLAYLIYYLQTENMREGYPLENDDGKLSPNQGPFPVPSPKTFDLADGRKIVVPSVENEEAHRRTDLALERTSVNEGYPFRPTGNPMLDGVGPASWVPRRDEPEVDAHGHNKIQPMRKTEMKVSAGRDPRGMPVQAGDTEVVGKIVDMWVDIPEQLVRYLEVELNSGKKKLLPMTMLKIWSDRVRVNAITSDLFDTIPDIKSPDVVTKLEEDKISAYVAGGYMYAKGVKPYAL
T1 sequence (P02948 whole entry, further chain): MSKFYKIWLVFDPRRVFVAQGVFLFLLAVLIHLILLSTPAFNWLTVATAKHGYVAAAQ
T1 sequence (P02950 whole entry, further chain): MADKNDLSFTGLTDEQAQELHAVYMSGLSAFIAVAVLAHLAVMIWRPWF
Method: The favorable properties of CAO and DCAO in terms of membrane protein stabilization prompted further evaluation of these reagents' ability to stabilize protein superassemblies as a function of time. DDM-purified samples were diluted with solutions containing CAO or LDAO. […] Protein stability was monitored over time at room temperature by measuring absorbance ratios (A875/A680) (absorption at 680 nm arises from the oxidation of bacteriochlorophyll dissociated from LHI upon denaturation). […] Of note, DCAO was not evaluated in this long-term stability of the superassembly due to its high tendency to form a hydrogel at this high concentration.
R. capsulatus superassembly was purified in DDM according to the protocol described above. The DDM-purified sample was then diluted to the solutions containing individual detergents (CAO, CAO-1, DCAO, DCAO-2, DDM and LDAO). The dilution makes DDM concentration reached far below its CMC and the final individual detergent concentration at CMC+0.04 wt % or CMC+1.0 wt %. The spectra of individual detergents-solubilized LHI-RC complexes were taken in a range of 650 nm to 950 nm at regular intervals over 20 days during the incubation at room temperature. Protein integrity in each sample was assessed via changes in absorbance ratio (A875/A680) with time.
Similar criteria and protocols were used to judge the ability of amphiphiles to maintain solubilized and purified superassembly for extended periods. In this case, UV Vis-nearIR spectra were recorded at regular intervals. The degradation of the material could be monitored with the A875/A680 absorbance ratio, which decreased with time and sample integrity as the dominant 875 nm absorption of intact LHI disappeared and a 680 nm band appeared, indicating the presence of unbound, oxidized cofactors.

[2] = test system: T1, LHI-RC complex; experiment: Solubilization of LHI-RC complex from R. capsulatus intracytoplasmic membranes (pellet/supernatant absorbance spectra); set-up: species or system Rhodobacter capsulatus; details: 2×CMC for DPA-2, CAO, CAO-1; 10×CMC for other new agents; 50×CMC for DDM and LDAO; 32° C., 30 min
Method: (§1) These two reagents were chosen as control agents for the assay. For the superassembly solubilization, the intracytoplasmic R. capsulatus membranes enriched in LHI-RC complex were treated with 10×CMC individual new agents except DPA-2; DPA-2 was tested at 2×CMC based on its high CMC value. On the other hand, conventional detergents (LDAO and DDM) were used at 50×CMC due to the small CMC value in terms of wt. %. The solubilized protein portion and insolubilized part containing cellular debris and insolubilized membranes were separated via ultracentrifugation and isolated as the supernatant and pellet, respectively. The absorption spectra of these two portions were taken to assess detergents efficacy on the protein solubilization and stabilization.
(§2) The solubilization and purification of the R. capsulatus superassembly were conducted according to the published protocol (Chae et al., ChemBioChem 2008, 9, 1706-1709). First, specialized photosynthetic membranes called intracytoplasmic membranes were obtained from an engineered strain of Rhodobacter (R.) capsulatus, U43[pUHTM86Bgl], lacking the light-harvesting complex II (LHII). The solubilization experiment began by thawing and homogenizing frozen aliquots of R. capsulatus membranes at room temperature. The solution was then incubated with mild agitation at 32° C. for 30 min. Subsequently, the solution was further incubated for 30 min after adding individual detergents (2×CMC for DPA-2, CAO and CAO-1, 10×CMC for DPA-1, […], DCAO and DCAO-2, 50×CMC for DDM and LDAO) into 1.0 mL solutions of R. capsulatus superassembly. The solution was then subjected to ultracentrifugation at 310,000 g at 4° C. for 30 min to remove membrane debris.
(§3) The spectra of solubilized supernatant and solubilized pellet were taken in a range from 650 nm to 950 nm after being homogenized. For the purification of the protein, detergent-solubilized samples were transferred into a new 1.7 mL microcentrifuge tube containing Ni-NTA resin (Qiagen, Inc.; Valencia, Calif.; pre-equilibriated and stored in an equal volume of buffer containing 10 mM Tris, pH 7.8, and 100 mM NaCl). Following one-hour incubation at 4° C. for protein binding, the resins were collected and washed twice with 0.5 mL of binding buffer (a pH 7.8 Tris solution containing DDM at 1×CMC). Purified protein solution were collected by eluting three times with 0.20 mL elution buffer solutions containing 1 M imidazole (otherwise, this buffer was identical to binding buffer; the pH of each solution was readjusted to pH=7.8) and diluted with 0.4 mL of the binding buffer to reach 1.0 mL solution. UV-Vis spectra of the superassembly purified in individual detergents were then taken to assess the stability of the protein.

[3] = Critical micelle concentration (CMC) estimated with hydrophobic fluorescent dye diphenylhexatriene (DPH); assay type: physicochemical
Text: The “Critical Micelle Concentration” (CMC) refers to the concentration of a detergent (e.g., an amphiphile as described herein) in an aqueous solution at which the detergent molecules self-assemble into micelles. Below the CMC, detergents are mostly monomeric; above the CMC, micelle concentration increases linearly with detergent concentration. The CMC is dependent upon many factors and is detergent-specific. The CMC of a detergent can be determined experimentally by measuring the solubilization of a water-insoluble dye or fluorophore while varying the concentration of detergent. A CMC may also be determined by measuring the diminution of the surface tension of an aqueous solution as a function of detergent concentration (CMCs determined by either method correlate with each other). The CMC is determined by extrapolating the plot of solubilization vs. concentration (or surface tension vs. concentration) in the two linear regions above and below the CMC. Where the two lines intersect is the CMC.
The Critical Micelle Concentrations (CMCs) of compounds of the invention can be determined by standard techniques known to those of skill in the art. For example, CMCs of CAO and DCAO can be determined by monitoring uptake of a fluorescent dye (e.g., a dye such as 1,6-diphenylhexatriene) with increasing detergent concentration, monitored by fluorescence spectroscopy.

[4] = test system: T1, LHI-RC complex; experiment: Integrity of detergent-solubilized and Ni-NTA-purified LHI-RC complexes by UV-Vis absorption spectra; set-up: species or system Rhodobacter capsulatus; details: purified protein eluted at 1×CMC detergent
Text: The presence of various types of cofactors such as bacteriochlorophyll and carotenoids embedded in the complexes, thereby providing a well-featured UV-Vis absorption spectrum, facilitates the assessment of the protein integrity for a set of detergents via optical spectrophotometry. The native conformation of the protein is represented by a very strong peak at 875 nm in its absorption spectrum, while the intact RC but denatured LHI, or denatured LHI and RC, produce rather intense peaks at ˜800 nm and ˜760 nm, respectively.
as §1
For the purification, the detergent-solubilized protein samples were subjected to a metal affinity column chromatography and eluted with the elution buffer containing 1M imidazole and 1×CMC individual detergents. The UV-Visible spectra of the resulting protein samples were taken to investigate the integrity of detergent-purified LHI-RC complexes.
as §2, §3

[5] = at CMC+0.04 wt. % and CMC+1.0 wt. %, 20 days
[6] = estimated with DPH, Example 2, Table 2.1

Structure (SMILES)	long-term stability of superassembly (A875/A680), in words [1, 5]	SY (%) Solubilization yield of LHI-RC complex from the membrane [2] [%]	CMC [3, 6] [mM]	CMC (wt. %) [3, 6] [wt. %]	long-term stability of superassembly (A875/A680), in words ([1]; detergent at CMC+0.04 wt. %)	long-term stability of superassembly (A875/A680), in words ([1]; detergent at CMC+1.0 wt. %)	native structure of LHI-RC complexes after solubilization and purification (in words) [4]	CMC ([3]; Example 3, Table 3-2) [mM]	CMC (%) ([3]; Example 3, Table 3-2)	native conformation retained by detergent-purified proteins [1] [%]
CC(CCC(=O)N(C)CCC[N+](C)(C)[O-])C1CCC2C3C(O)CC4CC(O)CCC4(C)C3CC(O)C12C (stereo not shown) [CAO-1]	clearly superior to DDM	~20	~7.2	~0.36						
CC(CCC(=O)NCCC[N+](C)(C)[O-])C1CCC2C3C(O)CC4CC(O)CCC4(C)C3CC(O)C12C (stereo not shown) [CAO]	clearly superior to DDM	~30	~8.3	~0.42	more stable than DDM-solubilized protein	efficacy difference between CAO and DDM was more prominent	fully retained as effectively as DDM	7.1	0.36	
C[C@H](CCC(=O)NCCC[N+](C)(C)CCCS(=O)(=O)[O-])[C@H]1CC[C@H]2[C@@H]3[C@H](O)C[C@@H]4C[C@H](O)CC[C@]4(C)[C@H]3C[C@H](O)[C@]12C [CHAPS, 3-[(3-cholamidopropyl)-dimethylammonio]-1-propanesulfonate, reference compound]		~50	~8.0				without structural degradation	8	0.49	~65
C[C@H](CCC(=O)NCCC[N+](C)(C)CC(O)CS(=O)(=O)[O-])[C@H]1CC[C@H]2[C@@H]3[C@H](O)C[C@@H]4C[C@H](O)CC[C@]4(C)[C@H]3C[C@H](O)[C@]12C (stereo partly shown) [CHAPSO, 3-[(3-cholamidopropyl)-dimethylammonio]-2-hydroxy-1-propanesulfonate, reference compound]		~50						8	0.5	~65
CCCCCCCCCCCCO[C@@H]1O[C@H](CO)[C@@H](O[C@H]2O[C@H](CO)[C@@H](O)[C@H](O)[C@H]2O)[C@H](O)[C@H]1O [DDM, n-dodecyl-β-D-maltoside, reference compound]		~70	~0.17	~0.0087						
C[N+](C)([O-])CCCNC(=O)CC1(C2CCCC2)CCCCCC1 [DPA-1, 3-(2-(1-cyclopentylcycloheptyl)acetamido)-N,N-dimethylpropan-1-amine oxide]		~100	~13	~0.24			A similar trend was observed			
C[N+](C)([O-])CCCNC(=O)CC(c1ccccc1)c1ccccc1 [DPA-2, reference compound]		~15	~78	~2.5						
C[N+](C)([O-])CCCNC(=O)CC(C1CCCCC1)C1CCCCC1 [DPA-3, reference compound]		~95	~4.9	~0.17			protein degradation observed for DPA-3 was much less than that observed for DPA-1			
